The nature of assay [1]: growth suppression of PTEN-null colon cells, dose response, cell-based, HCT116 PTEN knockout (AID 1047).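 Also: HCT116 colon tumor cells with PTEN knocked out; cells exposed to compound for 60 hours before readout; potency for loss of cell viability measured by luminescence.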 It is filed as functional.
Assay [2] addresses Glucose-6-phosphate 1-dehydrogenase (Homo sapiens, UniProt P11413). The assay can be described thus: human G6PD enzyme inhibitors, dose response, selectivity assay for P. falciparum G6PD inhibitor project, biochemical, fluorescence (AID 504792). Type of assay: functional.
Assay [3] can be described thus: growth suppression of beta-catenin-knockout colon cells, dose response, cell-based, HCT116, human colon tumor (AID 1045).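 Also: HCT116 colon tumor cells with beta catenin knocked out; cells exposed to compound for 60 hours.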 Type of assay: functional.
In assay [4] the target is T1, Short transient receptor potential channel 4 (Mus musculus, UniProt Q9QUQ5).
T1 sequence (Q9QUQ5 whole entry): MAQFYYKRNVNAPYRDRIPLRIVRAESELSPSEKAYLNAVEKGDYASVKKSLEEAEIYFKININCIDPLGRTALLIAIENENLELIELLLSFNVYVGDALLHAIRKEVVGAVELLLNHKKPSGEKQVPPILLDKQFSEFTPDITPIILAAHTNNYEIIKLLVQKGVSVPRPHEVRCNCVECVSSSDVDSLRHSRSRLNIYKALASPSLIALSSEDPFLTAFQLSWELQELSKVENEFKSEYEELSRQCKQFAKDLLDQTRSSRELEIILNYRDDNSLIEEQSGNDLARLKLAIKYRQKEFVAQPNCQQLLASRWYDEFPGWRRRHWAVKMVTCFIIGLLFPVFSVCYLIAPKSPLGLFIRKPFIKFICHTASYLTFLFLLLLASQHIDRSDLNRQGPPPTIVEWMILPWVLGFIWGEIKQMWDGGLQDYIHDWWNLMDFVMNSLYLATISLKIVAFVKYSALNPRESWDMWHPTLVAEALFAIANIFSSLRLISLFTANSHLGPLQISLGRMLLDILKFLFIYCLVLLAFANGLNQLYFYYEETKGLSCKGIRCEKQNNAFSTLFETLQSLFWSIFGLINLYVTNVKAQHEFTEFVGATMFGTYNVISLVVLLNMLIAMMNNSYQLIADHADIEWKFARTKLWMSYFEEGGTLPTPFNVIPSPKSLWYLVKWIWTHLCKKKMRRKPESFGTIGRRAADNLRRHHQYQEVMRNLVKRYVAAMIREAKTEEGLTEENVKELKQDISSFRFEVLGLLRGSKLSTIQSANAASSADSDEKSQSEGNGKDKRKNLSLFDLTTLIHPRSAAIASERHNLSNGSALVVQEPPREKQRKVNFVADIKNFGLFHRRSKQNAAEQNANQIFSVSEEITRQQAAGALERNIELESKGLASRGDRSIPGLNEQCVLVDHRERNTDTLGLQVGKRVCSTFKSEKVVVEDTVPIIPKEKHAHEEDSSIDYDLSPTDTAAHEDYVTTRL
The assay can be described thus: mouse TRPC4 channel inhibitors, dose response, cell-based, HEK293 TRPC4/mu-opioid, Fluo-4 calcium (AID 434942).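 Also: potency of inhibitors blocking the TRPC4 calcium response.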 It is filed as functional.

Another assay has as its target Genome polyprotein (dengue virus type 2, UniProt P29990). The assay can be described thus: Dengue-2 NS5 methyltransferase inhibitors, primary screen, biochemical, confirmation dose response (AID 588689). It is filed as functional.
The target in assay [5] is Peroxisome proliferator-activated receptor gamma/Nuclear receptor coactivator 2 (Homo sapiens, UniProt P37231). The assay can be described thus: TR-FRET dose response biochemical High Throughput Screening assay for agonists of the steroid receptor coactivator 2 (SRC-2) recruitment by the peroxisome proliferator-activated receptor gamma (PPAR gamma): non-selective agonists. [Related pubchem assays: 1297, 1032 ]. It is filed as functional. In general terms: TR-FRET usually uses a lanthanide donor and a delayed reading to cut background.

The target in assay [6] is Peroxisome proliferator-activated receptor gamma/Nuclear receptor coactivator 3 (Homo sapiens, UniProt P37231). Nature of the assay: TR-FRET dose response biochemical High Throughput Screening assay for agonists of the steroid receptor coactivator 3 (SRC-3) recruitment by the peroxisome proliferator-activated receptor gamma (PPAR gamma): non-selective agonists. [Related pubchem assays: 1301 (Confirmation screen.), 1048 (Primary screen.)]. Type of assay: functional.
Chain of Peroxisome proliferator-activated receptor gamma/Nuclear receptor coactivator 3 (P37231 whole entry): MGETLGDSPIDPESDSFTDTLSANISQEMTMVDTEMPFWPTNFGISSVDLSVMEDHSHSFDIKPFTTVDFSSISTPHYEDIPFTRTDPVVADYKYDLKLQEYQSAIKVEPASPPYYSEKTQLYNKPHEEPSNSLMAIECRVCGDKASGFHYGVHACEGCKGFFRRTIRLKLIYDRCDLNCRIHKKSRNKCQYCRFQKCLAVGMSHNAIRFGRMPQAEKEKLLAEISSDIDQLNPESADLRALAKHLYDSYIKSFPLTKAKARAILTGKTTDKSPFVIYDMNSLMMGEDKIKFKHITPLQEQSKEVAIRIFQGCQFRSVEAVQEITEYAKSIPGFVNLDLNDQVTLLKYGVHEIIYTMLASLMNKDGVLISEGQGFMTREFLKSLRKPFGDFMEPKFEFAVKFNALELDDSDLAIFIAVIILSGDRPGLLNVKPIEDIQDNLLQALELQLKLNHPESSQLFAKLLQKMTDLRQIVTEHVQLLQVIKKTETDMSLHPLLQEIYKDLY
Chain of Peroxisome proliferator-activated receptor gamma/Nuclear receptor coactivator 3 (Q9Y6Q9 whole entry, further chain): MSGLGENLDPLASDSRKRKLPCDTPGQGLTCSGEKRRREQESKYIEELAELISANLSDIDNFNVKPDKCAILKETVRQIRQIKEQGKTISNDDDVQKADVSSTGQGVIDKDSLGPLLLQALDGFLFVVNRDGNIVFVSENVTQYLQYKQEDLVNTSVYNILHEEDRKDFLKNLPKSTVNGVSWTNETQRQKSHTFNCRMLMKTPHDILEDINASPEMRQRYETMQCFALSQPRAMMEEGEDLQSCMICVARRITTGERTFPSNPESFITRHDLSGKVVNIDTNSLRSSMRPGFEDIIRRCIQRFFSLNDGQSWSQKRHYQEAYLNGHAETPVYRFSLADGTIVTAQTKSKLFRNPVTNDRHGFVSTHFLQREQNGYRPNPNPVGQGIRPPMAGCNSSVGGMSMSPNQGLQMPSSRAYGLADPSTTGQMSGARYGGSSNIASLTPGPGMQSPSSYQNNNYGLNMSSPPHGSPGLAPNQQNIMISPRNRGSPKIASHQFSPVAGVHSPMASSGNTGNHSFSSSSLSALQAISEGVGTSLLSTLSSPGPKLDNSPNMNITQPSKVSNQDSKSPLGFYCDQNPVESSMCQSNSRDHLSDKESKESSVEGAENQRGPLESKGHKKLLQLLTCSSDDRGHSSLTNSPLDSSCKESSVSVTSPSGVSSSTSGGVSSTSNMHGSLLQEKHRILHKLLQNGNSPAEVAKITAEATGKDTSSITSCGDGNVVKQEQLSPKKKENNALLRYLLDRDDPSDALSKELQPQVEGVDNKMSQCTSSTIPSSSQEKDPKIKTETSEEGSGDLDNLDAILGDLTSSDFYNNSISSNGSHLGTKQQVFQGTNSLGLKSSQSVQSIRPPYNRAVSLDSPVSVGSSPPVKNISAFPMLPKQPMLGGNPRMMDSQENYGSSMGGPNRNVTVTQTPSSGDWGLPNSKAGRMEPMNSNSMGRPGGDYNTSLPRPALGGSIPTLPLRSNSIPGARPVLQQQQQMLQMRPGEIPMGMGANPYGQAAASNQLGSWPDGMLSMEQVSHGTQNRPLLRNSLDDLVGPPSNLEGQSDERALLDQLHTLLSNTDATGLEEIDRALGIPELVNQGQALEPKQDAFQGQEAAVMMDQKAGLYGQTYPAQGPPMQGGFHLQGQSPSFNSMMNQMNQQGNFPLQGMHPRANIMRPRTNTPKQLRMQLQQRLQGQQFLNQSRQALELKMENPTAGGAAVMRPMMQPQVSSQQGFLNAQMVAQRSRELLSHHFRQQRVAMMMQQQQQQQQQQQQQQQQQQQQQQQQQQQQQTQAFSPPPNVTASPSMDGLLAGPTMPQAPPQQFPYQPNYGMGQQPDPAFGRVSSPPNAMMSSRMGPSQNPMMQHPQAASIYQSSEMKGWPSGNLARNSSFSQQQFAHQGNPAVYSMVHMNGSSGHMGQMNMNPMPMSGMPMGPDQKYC

Assay [7] concerns the target Peroxisome proliferator-activated receptor gamma/Nuclear receptor coactivator 1 (Homo sapiens, UniProt P37231). The assay can be described thus: TR-FRET dose response biochemical High Throughput Screening assay for agonists of the steroid receptor coactivator 1 (SRC-1) recruitment by the peroxisome proliferator-activated receptor gamma (PPAR gamma): non-selective agonists. [Related pubchem assays (depositor defined):AID1300, AID1808, AID504735, AID631]. It is filed as protein assay.

The target in assay [8] is T2, Mannose-6-phosphate isomerase (Homo sapiens, UniProt P34949).
T2 sequence (P34949 whole entry): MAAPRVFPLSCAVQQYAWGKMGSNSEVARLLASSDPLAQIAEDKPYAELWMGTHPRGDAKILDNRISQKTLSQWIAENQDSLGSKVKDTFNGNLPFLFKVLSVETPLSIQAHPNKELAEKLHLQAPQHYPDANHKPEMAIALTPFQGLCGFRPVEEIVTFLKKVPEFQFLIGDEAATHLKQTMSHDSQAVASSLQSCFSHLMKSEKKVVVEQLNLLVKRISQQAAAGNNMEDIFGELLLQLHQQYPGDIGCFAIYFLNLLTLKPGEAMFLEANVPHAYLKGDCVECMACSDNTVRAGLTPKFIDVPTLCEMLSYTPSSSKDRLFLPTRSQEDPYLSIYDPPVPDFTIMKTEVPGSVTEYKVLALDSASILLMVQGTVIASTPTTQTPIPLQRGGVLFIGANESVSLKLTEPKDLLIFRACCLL
The assay can be described thus: human PMI inhibitors, high substrate, primary screen, biochemical, fluorescence intensity, high mannose 6-phosphate (AID 1220).

The target of assay [9] is DNA dC->dU-editing enzyme APOBEC-3G (Homo sapiens, UniProt Q9HC16). Nature of the assay: Dose Response confirmation of small molecule APOBEC3G DNA Deaminase Inhibitors via a fluorescence-based single-stranded DNA deaminase assay. [Related pubchem assays (depositor defined):AID493012, AID493028]. It is filed as functional.
The nature of assay [10]: inhibitors of intracellular T. cruzi replication, confirmation, NIH3T3 host cells, beta-gal luminescence (AID 2044).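 Also: intracellular parasites grown in NIH/3T3 mouse fibroblasts as host cells; luminescent beta-galactosidase reporter signal from transgenic T. cruzi replicating inside host cells; inhibitors lower the luminescence signal.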 Type of assay: functional, cell-based.
The nature of assay [11]: cytotoxicity toward NIH3T3 fibroblasts, dose response, counter-screen, cell-based, ATP luminescence, mouse fibroblasts (AID 2010).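 Also: cells exposed to compound for about 90 hours before reading.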 Type of assay: functional. The settings on record: NIH3T3.
Assay [12] deals with T3, Heat shock factor protein 1 (Mus musculus, UniProt P38532).
T3 sequence (P38532 whole entry): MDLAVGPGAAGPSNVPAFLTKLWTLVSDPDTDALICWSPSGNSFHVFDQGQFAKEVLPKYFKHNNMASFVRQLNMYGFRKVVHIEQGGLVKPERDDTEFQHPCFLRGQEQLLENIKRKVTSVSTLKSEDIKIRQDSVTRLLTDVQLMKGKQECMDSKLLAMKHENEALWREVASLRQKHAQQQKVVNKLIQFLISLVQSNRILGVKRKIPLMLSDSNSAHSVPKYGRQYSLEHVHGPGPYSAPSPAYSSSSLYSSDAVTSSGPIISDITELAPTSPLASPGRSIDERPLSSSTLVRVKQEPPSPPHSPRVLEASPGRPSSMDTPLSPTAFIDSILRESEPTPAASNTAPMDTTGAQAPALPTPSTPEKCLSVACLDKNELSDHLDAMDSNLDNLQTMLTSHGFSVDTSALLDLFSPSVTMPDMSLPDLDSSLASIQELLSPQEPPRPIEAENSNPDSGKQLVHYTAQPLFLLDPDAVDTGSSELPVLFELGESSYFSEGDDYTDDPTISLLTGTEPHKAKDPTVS
Nature of the assay: inhibition of MG132-induced HSE-luciferase signal, confirmation, cell-based, NIH3T3, luminescence, dose retest (AID 2382).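 Also: NIH3T3 fibroblasts with HSF1-driven luciferase reporter stressed by proteasome inhibitor MG132; luminescence from HSF1-driven luciferase expression after 8 hours of MG132 stress.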 It is filed as functional.

Assay [13] has as its target T4, DNA repair and recombination protein RAD54-like (Homo sapiens, UniProt Q92698).
T4 sequence (Q92698 whole entry): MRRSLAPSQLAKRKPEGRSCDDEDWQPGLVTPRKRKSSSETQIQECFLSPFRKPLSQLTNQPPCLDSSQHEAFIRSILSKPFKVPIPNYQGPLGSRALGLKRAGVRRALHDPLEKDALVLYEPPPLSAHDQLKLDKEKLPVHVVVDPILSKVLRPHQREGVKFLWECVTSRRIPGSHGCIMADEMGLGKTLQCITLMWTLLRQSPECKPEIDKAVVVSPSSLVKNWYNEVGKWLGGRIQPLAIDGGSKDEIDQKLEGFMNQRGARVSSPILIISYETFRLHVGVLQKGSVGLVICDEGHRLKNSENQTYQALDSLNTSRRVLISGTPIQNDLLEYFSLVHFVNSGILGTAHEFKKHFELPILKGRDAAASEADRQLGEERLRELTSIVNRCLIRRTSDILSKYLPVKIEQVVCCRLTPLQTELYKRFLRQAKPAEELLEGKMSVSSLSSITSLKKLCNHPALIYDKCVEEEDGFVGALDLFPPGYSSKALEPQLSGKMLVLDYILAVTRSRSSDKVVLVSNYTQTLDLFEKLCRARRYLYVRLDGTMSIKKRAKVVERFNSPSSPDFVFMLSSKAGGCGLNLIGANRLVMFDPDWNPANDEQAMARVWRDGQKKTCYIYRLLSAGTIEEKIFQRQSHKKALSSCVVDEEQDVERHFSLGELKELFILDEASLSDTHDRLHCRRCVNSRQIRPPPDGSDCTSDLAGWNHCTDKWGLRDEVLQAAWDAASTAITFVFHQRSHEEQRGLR
Nature of the assay: inhibitors of human RAD54 branch migration, confirmation, biochemical, fluorescence, cherry-picked samples, dose series (AID 651657). Type of assay: functional.

The target in assay [14] is T5, DNA repair protein RAD52 homolog (Homo sapiens, UniProt P43351).
T5 sequence (P43351 whole entry): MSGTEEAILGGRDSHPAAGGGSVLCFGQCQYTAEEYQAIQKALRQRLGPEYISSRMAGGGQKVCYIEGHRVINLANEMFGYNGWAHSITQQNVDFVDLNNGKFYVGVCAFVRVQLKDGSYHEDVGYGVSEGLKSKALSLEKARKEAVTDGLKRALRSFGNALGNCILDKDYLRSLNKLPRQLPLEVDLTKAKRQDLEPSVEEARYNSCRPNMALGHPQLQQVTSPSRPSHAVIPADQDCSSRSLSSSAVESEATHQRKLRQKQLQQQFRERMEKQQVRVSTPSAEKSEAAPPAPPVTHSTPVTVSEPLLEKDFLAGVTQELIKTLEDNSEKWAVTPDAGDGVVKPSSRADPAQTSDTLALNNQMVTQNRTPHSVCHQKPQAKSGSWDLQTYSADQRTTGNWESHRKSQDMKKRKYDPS
It is filed as functional, biochemical.

Assay [15] has as its target T1, Short transient receptor potential channel 4. The assay can be described thus: mouse TRPC4 channel activators, dose response, cell-based, HEK293 TRPC4/mu-opioid, Fluo-4 calcium (AID 434937). It is filed as functional.

Results on 16 compounds are retold here after ChEMBL document CHEMBL1201862, “PubChem BioAssay data set” (2004).

As a reminder, the EC50 is the concentration needed to bring the measured effect to its halfway point. As a reminder, the IC50 is the concentration that gives 50% inhibition. As usually defined, the AC50 is the concentration at which the activity in the assay is half-maximal.

The source made the active and inactive calls.

Chain of Genome polyprotein (P29990 2492-3391 limits assumed): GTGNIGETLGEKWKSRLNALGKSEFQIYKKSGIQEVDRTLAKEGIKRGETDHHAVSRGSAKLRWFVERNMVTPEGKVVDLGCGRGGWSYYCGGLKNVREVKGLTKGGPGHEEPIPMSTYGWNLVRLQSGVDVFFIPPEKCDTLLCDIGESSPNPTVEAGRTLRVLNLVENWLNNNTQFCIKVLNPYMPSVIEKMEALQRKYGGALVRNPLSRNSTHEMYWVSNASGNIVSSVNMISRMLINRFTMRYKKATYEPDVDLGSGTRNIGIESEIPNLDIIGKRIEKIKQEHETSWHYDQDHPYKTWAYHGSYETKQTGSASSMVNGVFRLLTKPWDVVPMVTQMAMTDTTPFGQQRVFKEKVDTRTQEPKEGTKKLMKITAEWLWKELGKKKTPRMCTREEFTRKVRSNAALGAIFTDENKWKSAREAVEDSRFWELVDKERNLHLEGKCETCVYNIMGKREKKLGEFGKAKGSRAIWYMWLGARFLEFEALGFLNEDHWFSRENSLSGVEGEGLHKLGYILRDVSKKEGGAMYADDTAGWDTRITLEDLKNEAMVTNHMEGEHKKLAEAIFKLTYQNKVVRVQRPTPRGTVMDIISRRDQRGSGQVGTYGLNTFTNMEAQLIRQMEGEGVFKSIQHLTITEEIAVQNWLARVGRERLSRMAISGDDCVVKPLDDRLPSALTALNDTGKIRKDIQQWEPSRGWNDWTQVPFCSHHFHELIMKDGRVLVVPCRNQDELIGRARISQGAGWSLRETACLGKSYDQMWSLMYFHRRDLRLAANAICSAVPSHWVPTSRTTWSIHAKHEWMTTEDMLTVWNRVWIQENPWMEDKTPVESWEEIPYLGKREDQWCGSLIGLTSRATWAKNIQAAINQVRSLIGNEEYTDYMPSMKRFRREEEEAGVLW
Chain of Peroxisome proliferator-activated receptor gamma/Nuclear receptor coactivator 1 (P37231 whole entry): as the sequence (P37231 whole entry) above
Chain of Peroxisome proliferator-activated receptor gamma/Nuclear receptor coactivator 1 (Q15788 whole entry, further chain): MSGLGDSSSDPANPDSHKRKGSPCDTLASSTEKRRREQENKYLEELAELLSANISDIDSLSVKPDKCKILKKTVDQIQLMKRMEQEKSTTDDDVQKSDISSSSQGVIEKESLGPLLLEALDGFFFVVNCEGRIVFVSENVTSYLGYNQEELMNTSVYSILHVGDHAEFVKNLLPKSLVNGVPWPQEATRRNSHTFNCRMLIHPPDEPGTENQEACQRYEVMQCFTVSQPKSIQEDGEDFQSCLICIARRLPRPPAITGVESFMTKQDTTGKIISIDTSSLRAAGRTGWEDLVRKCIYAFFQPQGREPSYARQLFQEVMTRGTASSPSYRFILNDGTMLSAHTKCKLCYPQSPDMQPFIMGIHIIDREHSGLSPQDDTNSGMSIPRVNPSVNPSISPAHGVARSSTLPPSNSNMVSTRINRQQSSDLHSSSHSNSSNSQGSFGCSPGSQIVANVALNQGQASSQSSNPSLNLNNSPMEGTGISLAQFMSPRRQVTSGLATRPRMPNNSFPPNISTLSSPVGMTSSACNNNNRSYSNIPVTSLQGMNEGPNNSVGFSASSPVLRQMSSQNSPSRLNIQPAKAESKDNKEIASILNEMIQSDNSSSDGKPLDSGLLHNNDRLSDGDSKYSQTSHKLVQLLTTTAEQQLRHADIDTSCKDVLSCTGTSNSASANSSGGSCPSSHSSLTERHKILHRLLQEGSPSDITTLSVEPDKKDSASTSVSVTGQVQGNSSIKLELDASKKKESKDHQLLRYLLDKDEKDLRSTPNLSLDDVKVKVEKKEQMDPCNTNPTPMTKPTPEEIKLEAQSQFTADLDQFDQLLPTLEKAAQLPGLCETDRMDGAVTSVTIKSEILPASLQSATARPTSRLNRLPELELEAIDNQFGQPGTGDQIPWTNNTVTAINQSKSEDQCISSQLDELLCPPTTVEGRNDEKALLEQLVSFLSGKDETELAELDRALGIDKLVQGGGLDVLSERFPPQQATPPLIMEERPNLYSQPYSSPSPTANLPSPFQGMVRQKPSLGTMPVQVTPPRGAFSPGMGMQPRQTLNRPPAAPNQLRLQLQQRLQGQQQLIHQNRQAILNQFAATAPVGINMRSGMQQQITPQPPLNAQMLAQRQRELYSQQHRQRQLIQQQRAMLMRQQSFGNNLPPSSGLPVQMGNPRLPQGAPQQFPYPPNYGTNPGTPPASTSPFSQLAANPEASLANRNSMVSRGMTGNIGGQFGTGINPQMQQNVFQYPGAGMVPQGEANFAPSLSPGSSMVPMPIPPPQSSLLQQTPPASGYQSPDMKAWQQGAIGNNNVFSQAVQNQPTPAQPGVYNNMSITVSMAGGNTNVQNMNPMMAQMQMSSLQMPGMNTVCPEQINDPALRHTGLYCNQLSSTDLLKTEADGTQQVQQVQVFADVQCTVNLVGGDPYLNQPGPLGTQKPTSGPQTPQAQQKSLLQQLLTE

As for `CC1=CC(=NOC(=O)/C=C/c2ccccc2)C=C(C)C1=O`, the concentration for a half-maximal effect (EC50) is 14 µM (active) in assay [1] and 13.6 µM (active) in assay [3]. Also, the IC50 in assay [2] is > 80 µM (inactive).
Consider `Cc1ccc(C)c2c(N)c3c(nc12)CCCCC3.O=C(O)c1cncc(Br)c1`, for which the EC50 in assay [4] was 0.944 µM (active).
For the compound `COc1cc(/C=C(\C#N)C(=O)Nc2ccccc2C(=O)O)cc(Cl)c1OC`, the concentration for half-maximal inhibition (IC50) at Genome polyprotein was 60.6 µM (active). The values for the EC50 in assay [5], in assay [6] and in [7] were > 79.4 µM (not active), 8.27 µM (active) and > 79.4 µM (inactive), respectively.
Turning to `CC(Nc1ccc(Br)cn1)c1cc(Cl)ccc1O` (stereo not given), the concentration for a half-maximal effect (EC50) is 4.73 µM (active) in assay [5], 3.26 µM (active) in assay [6] and 6.3 µM (active) in [7].
Regarding `O=C(Nc1nc2c(s1)COc1ccccc1-2)c1cccs1`, the EC50 in [5] is 19.7 µM (not active); in assay [6], > 79.4 µM (not active); in [7], 28.5 µM (inactive).
In the case of `Cc1nc([N+](=O)[O-])nn1C12CC3CC(CC(Br)(C3)C1)C2`, the values for the IC50 in [8] and in assay [9] were 26.3 µM (active) and 49.6 µM (active), respectively. Besides, the EC50 in [10] is 0.105 µM (active); in [11], > 60 µM (not active).
Consider `Cc1cccc(N2CCN(Cc3ccoc3)CC2)c1C`, for which the EC50 in [4] was 0.668 µM (active).
Consider `Cc1ccc(-c2csc3nc(SCC(=O)Nc4ccc(Cl)c(C(=O)O)c4)nc(O)c23)cc1`, for which the half-inhibitory concentration (IC50) at Genome polyprotein was 37 µM (active).
Same read-out and setting: the same measure for `Cc1ccc(S(=O)(=O)Nc2nc(-c3ccc(F)cc3)cs2)cc1`: 70.6 µM (active).
`CCOc1ccccc1-n1c(SCC(=O)Nc2nccs2)nnc1-c1ccoc1C`: the EC50 in assay [4] was 1.5 µM (active).
With `Cc1onc(-c2c(F)cccc2Cl)c1C(=O)Nc1nnc(-c2ccccc2)s1`, the concentration for a half-maximal effect (EC50) is 29.8 µM (not active) in assay [5], > 79.4 µM (not active) in assay [6] and 446 µM (inactive) in [7].
In the case of `COc1ccccc1Nc1nc(NCCCN(C)C)nc(N)c1[N+](=O)[O-]`, the 50% effective concentration (EC50) in assay [12] is listed as > 195 µM (not active). In addition, the AC50 was 11.1 µM (active) in assay [13] and 5.59 µM (active) in assay [14].
`CN(C)CCNC(=O)c1c(NC(=O)c2ccccc2)sc2c1CCCC2`: in assay [15], the EC50 was 5.96 µM (active). Further, in assay [13], the AC50 was 56.4 µM (active).
Turning to `CCN(CC)Cc1cc(Nc2ccnc3cc(Cl)ccc23)ccc1O`, the concentration at half-maximal activity (AC50) was 10.3 µM (active) in assay [13] and 10 µM (active) in assay [14].
Turning to `O=C(CSc1nc(=O)n(CCN2CCOCC2)c2c1CCC2)Nc1ccc(OC(F)(F)F)cc1`, the concentration for a half-maximal effect (EC50) in assay [4] is 7.5 µM (active).
Regarding `Cc1ccc(S(=O)(=O)NCCC(=O)NCC(c2ccco2)N2CCCCC2)cc1C` (stereo not given), the 50% effective concentration (EC50) in [15] is 0.944 µM (active); in assay [4], 0.168 µM (active).
